Tests used:
Set-up in all cases: species or system AML cell lines (8); Primary HTS, single concentration about 10 uM, Cell Titer Glo viability; log10 luminescence, per cent inhibition relative to cycloheximide control
Conditions in all cases: 72 h, relative to cycloheximide control, log10 luminescence; inhibitor
CMK = system: CMK
M07e = system: M07e
CHRF288-11 = system: CHRF288-11
U937 = system: U937
MV4-11 = system: MV4-11
ML-2 = system: ML-2
MOLM-13 = system: MOLM-13
CMS = system: CMS

Compound	CMK %inh (CMK) [%]	M07e %inh (M07e) [%]	CHRF288-11 %inh (CHRF288-11) [%]	U937 %inh (U937) [%]	MV4-11 %inh (MV4-11) [%]	ML-2 %inh (ML-2) [%]	MOLM-13 %inh (MOLM-13) [%]	CMS %inh (CMS) [%]
COc1cc2ncn(-c3cc(OCc4ccccc4C(F)(F)F)c(C(=O)N(C)C)s3)c2cc1OC [SJ000573307-1, U22436/129/1]	4.289	-4.272	2.061	7.074	8.508	-1.707	15.46	-4.162
COC(=O)c1sc(-n2cnc3cc(OC)c(OC)cc32)cc1OCc1ccccc1C(F)(F)F [SJ000573308-1, U22436/119/1]	0.3974	0.7415	-2.151	29.63	-1.071	-1.915	-0.8474	4.6
O=C1Nc2ccccc2C1=C1CCc2cc(O)ccc21 [SJ000573309-1, C1338/186/2]	25.36	0.9027	18.33	12.06	57.39	4.662	102.5	4.291
Nc1nccc(C#Cc2cncnc2Nc2ccc(OCc3cccc(F)c3)c(Cl)c2)n1 [SJ000573310-1, U16767/158/1]	11.36	42.98	34.34	80.64	82.16	58.71	9.977	85.29
COc1cc(Nc2ncc3c(C)nc(-c4cccc(C(F)(F)F)c4)n3n2)cc(OC)c1OC [SJ000573311-1, U19240/54/1]	13.06	19.43	12.88	12.36	65.83	7.183	85.98	21.85
CCn1c(-c2nonc2N)nc2c(C#CC(C)(C)O)nc(OC[C@@H](N)c3ccccc3)cc21 [SJ000573312-1, LS204454-145A1 | LS204454-146A1]	11.49	29.99	122.3	37.57	7.841	7.922	19.15	24.21
CCn1c(-c2nonc2N)nc2c(C#CC(C)(C)O)nc(OC[C@H](N)c3ccccc3)cc21 [SJ000573312-2, LS204454-145A1 | LS204454-146A1]	111.5	46.62	83.17	44.96	22.87	28.64	14.91	42.42
CCn1c(-c2nonc2N)nc2c(C#CC(C)(C)O)nc(OCCNC)cc21 [SJ000573313-1, MS205583-134A1]	13.56	22.08	6.621	64.14	55.12	3.569	19.98	10.14
CCn1c(-c2nonc2N)nc2c(C#CC(C)(C)O)nc(CN3CCCC3)cc21 [SJ000573314-1, MR206418-021A1]	2.979	-3.096	4.422	4.345	2.964	-0.4194	-1.58	3.945
NS(=O)(=O)c1ccc(Nc2cc(-c3ccc(O)c(F)c3)n[nH]2)cc1 [SJ000573315-1, T350/112/30]	-1.653	-0.4073	-4.039	0.1443	53.96	0.5816	77.64	-2.048
N#Cc1c(NC(=O)CN2CCOCC2)sc2c1CCCC2 [SJ000573317-1, ST/830472]	-5.985	3.047	1.546	3.525	-2.657	1.88	-0.7057	0.5199
c1cnn2ncc(-c3ccnc(Nc4ccc5c(c4)OCCO5)n3)c2c1 [SJ000573318-1, U18020/87/1]	109.1	112.6	71.61	81.34	79.44	59.44	99.59	106
COc1cc(Nc2nccc(Nc3ccc4c(C)n[nH]c4c3)n2)cc(OC)c1OC [SJ000573319-1, U17574/67/1]	114.1	71.44	80.56	62.59	77.98	29.66	98.77	87.58
CCn1cc(-c2ccnc3[nH]ccc23)c(-c2cccc(NC(=O)Nc3ccc(OCc4ccccc4)cc3)c2)n1 [SJ000573320-1, R11459/78/21]	77.69	13.09	55.15	1.634	7.18	18.08	71.46	4.452
Nc1ncc(-c2cccc(S(N)(=O)=O)c2)c2scc(-c3ccc(F)c(Cl)c3)c12 [SJ000573321-1, T398/119/1]	13	3.71	3.763	8.699	8.004	3.028	16.59	4.233
COc1ccc2ncn(-c3cc(O[C@H](C)c4ccccc4C(F)(F)F)c(C(N)=O)s3)c2c1 [SJ000573322-1, U20814/199/10]	113.1	100.1	71.55	82.26	71.74	37.32	82.54	76.93
COc1ccc(-c2coc3ncnc(N)c23)cc1 [SJ000573323-1, R6872/61/3]	0.752	-2.594	1.277	2.094	-1.377	-3.247	0.9708	-2.18
NS(=O)(=O)c1ccc(Nc2cc(-c3cccc(O)c3)n[nH]2)cc1 [SJ000573324-1, T350/111/20]	-2.15	-0.9399	-4.339	-2.304	18.96	1.059	21.76	0.8193
Cc1ccc(-c2cc3c(NC(=O)C4CC4)ncnc3o2)cc1 [SJ000573325-1, T337/155/21]	-5.745	5.01	1.899	-2.342	-4.319	1.949	-1.693	1.223
NS(=O)(=O)c1cccc(Nc2cc(-c3ccc(F)cc3)n[nH]2)c1 [SJ000573326-1, T350/64/20]	-1.826	6.143	-0.9199	-2.237	42.33	1.419	68.76	1.139
CCn1c(-c2nonc2N)nc2c(C#CC(C)(C)O)nc(O[C@@H](CN)c3ccccc3)cc21 [SJ000573327-1, MS208738-058A1]	85.94	123.2	92	77.05	81.31	56.05	95.38	81.02
CCCN1CCC(c2ccc(Nc3nc(Nc4cc(F)ccc4C(N)=O)c4cc[nH]c4n3)c(OC)c2)CC1 [SJ000573328-1, U23536/58/1]	51.59	37.4	106.3	63.82	58.24	55.61	66.64	49
O=C(O[C@H]1CN[C@H](C#Cc2cc3ncnc(Nc4ccc(OCc5cccc(F)c5)c(Cl)c4)c3s2)C1)N1CCOCC1 [SJ000573329-1, U20348/87/4]	8.904	-3.855	79.21	6.089	10.03	22.51	4.591	8.758

From article PMC6522510 (Nature Communications, 2019)
